PMC7076352 (Pharmaceutics, 2020)
Several values for one entry are separate records, joined by “and”; a condition that tells them apart may be missing. Equal values may be shown once. Read-outs that look alike come from different tables or passages of the source.

Columns and labels:
CYP2E1 = CYP2E1 (Rattus norvegicus, UniProt P05182); details: microsomes
Experimental: For the cocktail assay, the activity is expressed as the percentage of activity remaining comparing with that of a control sample containing no inhibitor. […] All the data were described as mean ± standard deviation (SD). Normality assumptions were tested by the Kolmogorov–Smirnov statistic setting p = 0.10 as the limit for rejection of the null hypothesis of normality. If the distribution of the data was normal with equal variances, a two-sided test was performed at the 5% level of significance. The Welch’s correction was then applied when the underlying variances were not equal. When the assumption of normality must be rejected, the Mann-Whitney test, a non-parametric equivalent of the independent-measures t-test, was used.

CYP450s = experiment: In vitro cocktail CYP450 activity assay, isozyme not given; type: in vitro ADME, SD rat
Experimental: (OHBUP-[D6]) and 5 nM 4′-hydroxydiclofenac-[^13C6] (OHDIC-[^13C6]) as internal standards (ISs).

CYP2B6 = experiment: in vitro; details: microsomes
Experimental: (§1) (OHBUP-[D6]) and 5 nM 4′-hydroxydiclofenac-[^13C6] (OHDIC-[^13C6]) as internal standards (ISs). […]
(§2) standard addition experiments. Each group included four concentration levels. For the PK […]
(§3) The probe compounds, viz. […]
(§4) chosen after incubating all the recruited substrates. In order to assure the linear relationship […]
(§5) The incubation system was also optimized in terms of substrate concentrations. The substrates concentrations of […]

CYP3A4 = experiment: in vitro; details: microsomes
Experimental: as §1, §2, §3, §4, §5

CYP2D6 = experiment: in vitro; details: microsomes
Experimental: as §1, §2, §3, §4, §5

CYP2C9 = experiment: in vitro; details: microsomes
Experimental: as §1, §2, §3, §4, §5

CYP2C19 = experiment: in vitro; details: microsomes
Experimental: as §1, §2, §3, §4, §5

CYP1A2 [1] = target: T1, CYP1A2 (Rattus norvegicus, UniProt P04799); experiment: In vitro cocktail CYP450 activity assay in rat liver microsomes, CYP1A2 (phenacetin probe)
T1 sequence (P04799 1-513): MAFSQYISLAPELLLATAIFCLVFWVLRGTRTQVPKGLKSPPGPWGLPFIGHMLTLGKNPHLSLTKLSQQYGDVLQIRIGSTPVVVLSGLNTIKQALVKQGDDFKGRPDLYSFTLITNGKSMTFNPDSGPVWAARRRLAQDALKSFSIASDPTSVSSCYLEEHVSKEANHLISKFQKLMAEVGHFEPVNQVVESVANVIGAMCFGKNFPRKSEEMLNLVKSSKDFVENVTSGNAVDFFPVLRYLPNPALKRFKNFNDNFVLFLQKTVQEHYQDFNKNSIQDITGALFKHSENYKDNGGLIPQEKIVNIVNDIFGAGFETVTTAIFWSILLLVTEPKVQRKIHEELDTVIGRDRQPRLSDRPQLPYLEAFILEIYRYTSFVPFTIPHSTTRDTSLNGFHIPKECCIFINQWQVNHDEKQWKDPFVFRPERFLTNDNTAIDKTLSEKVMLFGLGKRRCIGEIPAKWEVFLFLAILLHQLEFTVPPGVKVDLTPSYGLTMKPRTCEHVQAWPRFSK
Experimental: as §1, §2, §3, §4, §5

CYP1A2 [2] = target: T1, CYP1A2; details: read-out: Reported IC50; positive inhibitor of CYP1A2, literature ref 9, 10,11; cited from earlier work

CYP2E1, sequence (P05182 whole entry): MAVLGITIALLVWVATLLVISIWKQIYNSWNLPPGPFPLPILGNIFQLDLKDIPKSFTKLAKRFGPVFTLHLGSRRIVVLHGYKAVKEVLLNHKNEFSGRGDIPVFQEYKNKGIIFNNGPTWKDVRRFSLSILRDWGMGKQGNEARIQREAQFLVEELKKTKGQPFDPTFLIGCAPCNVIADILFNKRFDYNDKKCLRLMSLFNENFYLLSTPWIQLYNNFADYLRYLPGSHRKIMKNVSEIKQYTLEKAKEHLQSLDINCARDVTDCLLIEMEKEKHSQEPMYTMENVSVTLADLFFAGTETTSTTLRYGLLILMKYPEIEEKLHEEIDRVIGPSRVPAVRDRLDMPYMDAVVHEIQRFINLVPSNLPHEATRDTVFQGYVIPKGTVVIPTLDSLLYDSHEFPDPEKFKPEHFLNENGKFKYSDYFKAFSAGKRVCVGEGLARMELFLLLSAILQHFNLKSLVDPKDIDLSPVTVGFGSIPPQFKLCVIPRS

| SMILES | IC50 (CYP2E1) | IC50 (CYP450s) | IC50 (CYP2B6) | IC50 (CYP3A4) | IC50 (CYP2D6) | IC50 (CYP2C9) | IC50 (CYP2C19) | IC50 (CYP1A2 [1]; microsomes) | IC50 (CYP1A2 [2]) | IC50 (CYP1A2 [1]; Tested IC50) |
| --- | --- | --- | --- | --- | --- | --- | --- | --- | --- | --- |
| O=c1c(OC2O[C@H](CO)[C@@H](O)[C@H](O)[C@H]2O)c(-c2ccc(O)cc2)oc2cc(O)c(O)c(O)c12 (some centres unmarked) [A6, 6-hydoxykaempferol-3-O-glucoside] | 40.8 ± 1.65 µM | ≤ 15 µM | 115 ± 3.04 µM | 26.4 ± 1.39 µM | 19.5 ± 2.83 µM | 55.8 ± 3.4 µM | 53.67 ± 0.22 µM | 52.8 ± 1.93 µM | – | – |
| O=C(/C=C/c1ccc(O)cc1)C1=C(O)C2=C(O[C@H]([C@@H](O)[C@H](O)[C@H](O)CO)[C@H]2C2=C(O)/C(=C(O)/C=C/c3ccc(O)cc3)C(=O)C(O)([C@@H]3O[C@H](CO)[C@@H](O)[C@H](O)[C@H]3O)C2=O)C(O)([C@@H]2O[C@H](CO)[C@@H](O)[C@H](O)[C@H]2O)C1=O (some centres unmarked) [A8, anhydroxysafflor yellow B] | 9.06 ± 1.85 µM | ≤ 15 µM | > 200 µM | 34.4 ± 9.16 µM | 10.5 ± 1.11 µM | 1.21 ± 0.51 µM | 111 ± 21.6 µM | > 200 µM | – | – |
| O=c1c(O[C@@H]2O[C@H](CO)[C@@H](O)[C@H](O)[C@H]2O)c(-c2ccc(O)cc2)oc2cc(O)c(O[C@@H]3O[C@H](CO)[C@@H](O)[C@H](O)[C@H]3O)c(O)c12 [A13, 6-hydroxykaempferol-3,6-di-O-glucoside] | 10.2 ± 0.65 µM | ≤ 15 µM | 21 ± 2.31 µM | 58.5 ± 0.66 µM | 37.1 ± 8.85 µM | 93 ± 2.56 µM | 48.9 ± 4.36 µM | 13.3 ± 2.27 µM | – | – |
| Cc1nc2c([nH]1)c(=O)n(C)c(=O)n2Cc1ccco1 [FUR, furafylline] | – | – | – | – | – | – | – | – | 1.3 µM and 1.76 to 13.9 µM | 0.597 ± 0.0514 µM |
